Measurements from the RepoRT retention time repository (doi:10.1016/j.scitotenv.2015.08.078).

Assay: RP, Waters ACQUITY UPLC BEH C18, 100 × 2.1 mm, 1.7 µm, 0.3 mL/min, estimated dead time 0.73 min; A: water + 0.1% formic acid, pH 3; B: methanol + 0.1% formic acid, pH 3; gradient (min/%B) 0/10 14/90 16/90 18/10
Settings: stereoisomer not certain

SMILES	LC retention time
CCCCCCCCC=CC1CCC(=O)O1 (configuration not stated) [japonilure]	9.82 min
CCn1cc(C(=O)O)c(=O)c2cc(F)c(N3CCN(C)CC3)cc21 [Pefloxacin]	4.09 min
CC(C)(C)C(O)(CCc1ccc(Cl)cc1)Cn1cncn1 (configuration not stated) [Tebuconazole]	11.8 min
O=[N+]([O-])c1cnc(CO)n1CCO [Hydroxymetronidazole (MNZOH)]	1.9 min
C#CCOC(=O)C(C)Oc1ccc(Oc2ncc(Cl)cc2F)cc1 (configuration not stated) [Clodinafop-propargyl]	11.5 min
OC(c1ccc(F)cc1)(c1cncnc1)c1ccccc1Cl (configuration not stated) [Nuarimol (Trimidal)]	10 min
CCCCC(O)(Cn1cncn1)c1ccc(Cl)cc1Cl (configuration not stated) [Hexaconazole]	12 min
Cc1nn(C)c(Oc2ccccc2)c1C=NOCc1ccc(C(=O)OC(C)(C)C)cc1 [Fenpyroximate]	13.7 min
COP(=O)(OC)SCn1c(=O)oc2cc(Cl)cnc21 [Azamethiphos]	7.22 min
O=C1OC(CN2CCOCC2)CN1N=Cc1ccc([N+](=O)[O-])o1 (configuration not stated) [Furaltadone]	2.64 min
CCCSP(=S)(OCC)Oc1ccc(SC)cc1 (configuration not stated) [Sulprofos]	14.2 min
CCN(C(=O)SCc1ccccc1)C(C)C(C)C (configuration not stated) [Esprocarb]	12.8 min
COP(=S)(OC)Oc1ccc(S(C)=O)c(C)c1 (configuration not stated) [Fenthion sulfoxide]	7.8 min
COC1CC(OC2C(C)OC(OC3C(C)=CCC4CC(CC5(C=CC(C)C(C6CCCCC6)O5)O4)OC(=O)C4C=C(C)C(O)C5OCC(=CC=CC3C)C45O)CC2OC)OC(C)C1O (configuration not stated) [Doramectine]	15.7 min
CON(C)C(=O)Nc1ccc(Cl)cc1 [Monolinuron]	8.07 min
CCOC(=O)C1C(OC(=O)c2ccccc2)CC2CCC1N2C (configuration not stated) [Cocaethylene]	6.53 min
CC(C)Oc1cc(-n2nc(C(C)(C)C)oc2=O)c(Cl)cc1Cl [Oxadiazon]	13 min
CC(C)OC(=O)C(C)N(C(=O)c1ccccc1)c1ccc(F)c(Cl)c1 (configuration not stated) [Flamprop-isopropyl]	11.7 min
CCCCCCCCSC(=O)Oc1cc(Cl)nnc1-c1ccccc1 [Pyridate]	14.3 min
N#Cc1c[nH]cc1-c1cccc(Cl)c1Cl [Fenpiclonil]	9.52 min
CC1CCc2cc(F)cc3c(=O)c(C(=O)O)cn1c23 (configuration not stated) [Flumequine]	7.49 min
CC1COc2c(N3CCN(C)CC3)c(F)cc3c(=O)c(C(=O)O)cn1c23 (configuration not stated) [Ofloxacin]	4.08 min

SMILES	LC retention time
COc1cc2c(c3c1C1CCC(=O)C1C(=O)O3)C1CCOC1O2 (configuration not stated) [Aflatoxin B2]	7.55 min
COC(=O)C(C)N(C(=O)Cc1ccccc1)c1c(C)cccc1C (configuration not stated) [Benalaxyl]	11.7 min
CON=C(C(=O)OC)c1ccccc1COc1ccccc1C [Kresoxim-methyl]	11.7 min
Cn1cc(-c2ccccc2)c(=O)c(-c2cccc(C(F)(F)F)c2)c1 [Fluridone]	9.63 min
CCC(=O)C(CC(C)N(C)C)(c1ccccc1)c1ccccc1 (configuration not stated) [Methadone]	10.4 min
NC(=NN=Cc1ccc(Cl)cc1)NN=Cc1ccc(Cl)cc1 [Robenidine]	10.9 min
CCc1ccc(C(=O)NN(C(=O)c2cc(C)cc(C)c2)C(C)(C)C)cc1 [Tebufenozide]	11.5 min
CSc1nnc(C(C)(C)C)c(=O)n1N [Metribuzin]	7.06 min
CCOP(=S)(NC(C)C)Oc1ccccc1C(=O)OC(C)C (configuration not stated) [Isofenphos]	12.1 min
CCC(C)n1c(=O)[nH]c(C)c(Br)c1=O (configuration not stated) [Bromacil]	7.96 min
C#CC(C)(C)NC(=O)c1cc(Cl)cc(Cl)c1 [Propyzamide]	10.3 min
CCOC(=O)c1cnn(C)c1S(=O)(=O)NC(=O)Nc1nc(OC)cc(OC)n1 [Pyrazosulfuron-ethyl]	7.91 min
CCCC1CC(C(=O)NC(C(C)O)C2OC(SC)C(O)C(O)C2O)N(C)C1 (configuration not stated) [Lincomycin]	3.56 min
CC(COc1ccc(Oc2ccccc2)cc1)Oc1ccccn1 (configuration not stated) [Pyriproxyfen]	14 min
CNC(C)C(=O)c1ccccc1 (configuration not stated) [Methcathinone]	2.95 min
COc1cc2c(c3oc(=O)c4c(c13)CCOC4=O)C1C=COC1O2 (configuration not stated) [Aflatoxin G1]	7.15 min
CCCC(=NOCC)C1=C(O)CC(C2CCCSC2)CC1=O (configuration not stated) [Cycloxydime]	11.3 min
Cc1[nH]c(=O)n(C(C)(C)C)c(=O)c1Cl [Terbacil]	7.42 min
CC1CC2C(C(O)CC3(C)C2CCC3(O)C(=O)CO)C2(C)C=CC(=O)C=C12 (configuration not stated) [6a-Methylprednisolone]	9.42 min
CC(C)c1cc(Oc2ccccc2)cc(C(C)C)c1NC(=S)NC(C)(C)C [Diafenthiuron]	13.7 min
CCCCCc1cc(O)c2c(c1)OC(C)(C)C1CC(O)C(C)=CC21 (configuration not stated) [OH-THC]	13.9 min
CCCC1OC2CC3C4CCC5=CC(=O)C=CC5(C)C4C(O)CC3(C)C2(C(=O)CO)O1 (configuration not stated) [Budesonide]	10.9 min

SMILES	LC retention time
CC(C(=O)O)c1cccc(C(=O)c2ccccc2)c1 (configuration not stated) [Ketoprofen]	10.3 min
CCc1nn(C)c(C(=O)NCc2ccc(C(C)(C)C)cc2)c1Cl [Tebufenpyrad]	13.2 min
CC1Cc2c(Cl)cc(C(=O)O)c(O)c2C(=O)O1 (stereo not drawn) [Ochratoxin Alpha]	11.2 min
CCCCC(C#N)(Cn1cncn1)c1ccc(Cl)cc1 (configuration not stated) [Myclobutanil]	10.6 min
CC12C=CC(=O)C=C1CCC1C3CC(O)C(O)(C(=O)CO)C3(C)CC(O)C12F (configuration not stated) [Triamcinolone]	6.95 min
CN1COCN(Cc2cnc(Cl)s2)C1=N[N+](=O)[O-] [Thiamethoxam]	3.27 min
Cn1c([N+](=O)[O-])cnc1CO [HMMNI (Hydroxy Dimetridazole)]	2.23 min
CCOP(=S)(OCC)SCCS(=O)(=O)CC [Disulfoton-sulfone]	8.76 min
CCC(C)C(=O)OC1CC(O)C=C2C=CC(C)C(CCC(O)CC(O)CC(=O)O)C21 (configuration not stated) [Pravastatin]	7.96 min
COc1ccc2nc(S(=O)Cc3ncc(C)c(OC)c3C)[nH]c2c1 (configuration not stated) [Omeprazole]	7.14 min
N#CC(CCc1ccc(Cl)cc1)(Cn1cncn1)c1ccccc1 (configuration not stated) [Fenbuconazole]	11.1 min
CNC(=O)ON=CC(C)(C)S(C)=O (configuration not stated) [Aldicarb sulfoxide]	2.54 min
OC(CCCN1CCN(c2ccccn2)CC1)c1ccc(F)cc1 (configuration not stated) [Azaperol]	4.96 min
CCON=C(OC(=O)c1ccccc1)c1c(OC)ccc(Cl)c1OC [Benzoximate]	12.1 min
Cc1nc(N(C)C)nc(OC(=O)N(C)C)c1C [Pirimicarb]	5.67 min
CN(C)S(=O)(=O)N(SC(F)(Cl)Cl)c1ccccc1 [Dichlofluanid]	10.8 min
Nc1ccccc1O [2-Aminophenol]	1.44 min
CCC1OC(=O)CC(O)C(C)C(OC2OC(C)C(O)C(N(C)C)C2O)C(CCN2CC(C)CC(C)C2)CC(C)C(=O)C=CC(C)=CC1COC1OC(C)C(O)C(OC)C1OC (configuration not stated) [Tilmicosin]	8.78 min
N#CN=C1SCCN1Cc1ccc(Cl)nc1 [Thiacloprid]	6.28 min
CNC(=O)Oc1cccc2c1OC(C)(C)C2O (configuration not stated) [Carbofuran-3-OH]	4.08 min
N#Cc1c[nH]cc1-c1cccc2c1OC(F)(F)O2 [Fludioxonil]	10.1 min
COP(=O)(OC)C(O)C(Cl)(Cl)Cl (configuration not stated) [Trichlorfon]	4.7 min

SMILES	LC retention time
CCCCNC(=O)n1c(NC(=O)OC)nc2ccccc21 [Benomyl]	11.6 min
CCn1cc(C(=O)O)c(=O)c2cnc(N3CCNCC3)nc21 [Pipemidic acid]	3.48 min
CC1(C)C(C(=O)OC(C#N)c2cccc(Oc3ccccc3)c2)C1(C)C (configuration not stated) [Fenpropathrin]	13.7 min
CCN(CC)CCOC(=O)c1ccc(N)cc1 [Procaine]	2.19 min
CCNc1nc(NCC)nc(SC)n1 [Simetryn]	8.78 min
Nc1c(Cl)c(F)nc(OCC(=O)O)c1Cl [Fluroxypyr]	7.71 min
CCOc1cc(Oc2ccc(C(F)(F)F)cc2Cl)ccc1[N+](=O)[O-] [Oxyfluorfen]	13.8 min
CCC(C)(C)NCC(O)c1cc(Cl)c(N)c(C(F)(F)F)c1 (configuration not stated) [Mapenterol]	7.01 min
O=C(Nc1ccccc1)N(Cc1ccc(Cl)cc1)C1CCCC1 [Pencycuron]	12.2 min
CCCCC1C(=O)N(c2ccccc2)N(c2ccc(O)cc2)C1=O (configuration not stated) [Oxyphenylbutazone]	9.97 min
CNC(=O)Oc1cccc2c1OC(C)(C)C2 [Carbofuran]	8.15 min
CC(N)Cc1ccc2c(c1)OCO2 (configuration not stated) [MDA]	3.62 min
CCCC1COC(Cn2cncn2)(c2ccc(Cl)cc2Cl)O1 (configuration not stated) [Propiconazole]	12.5 min
O=C(O)COC(=O)Cc1ccccc1Nc1c(Cl)cccc1Cl [Aceclofenac]	10.3 min
CC(C)OP(=O)(OC(C)C)SCc1ccccc1 [Iprobenfos]	11.5 min
CNC(=O)Oc1cccc(N=CN(C)C)c1 [Formetanate]	2.06 min
CNC(=O)ON=CC(C)(C)SC [Aldicarb]	6.2 min
CCCCCC(C)OC(=O)COc1ccc(Cl)c2cccnc12 (configuration not stated) [Cloquintocet - mexyl]	13 min
CCC(C)Nc1c([N+](=O)[O-])cc(C(C)(C)C)cc1[N+](=O)[O-] (configuration not stated) [Butralin]	13.5 min
O=C1OCCN1N=Cc1ccc([N+](=O)[O-])o1 [Furazolidone]	2.96 min
CCS(=O)(=O)c1cccnc1S(=O)(=O)NC(=O)Nc1nc(OC)cc(OC)n1 [Rimsulfuron]	5.84 min
